Test results from patent publication US12077503B2, “Substituted cyclic amides and their use as herbicides” (FMC CORPORATION, priority 2015, dated 2024).

Columns and labels:
Type in all cases: in vivo
[1] = tested on: blackgrass (Alopecurus myosuroides); assay: Test A postemergence; details: Alopecurus myosuroides, post-emergence, 240 h, Postemergence
In short: (§1)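 Seeded soil received test chemicals as a preemergence directed spray, and seedlings at one to two leaves, 2–10 cm tall, received them postemergence, in a non-phytotoxic, surfactant-containing solvent mixture. Pots were held in a greenhouse for approximately 10 d, then rated for injury from 0, no effect, to 100, complete control.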

[2] = tested on: Galium (catchweed bedstraw, Galium aparine); assay: Test A postemergence; details: Galium, post-emergence, 240 h, Postemergence
In short: as §1

[3] = tested on: pigweed (Amaranthus retroflexus); assay: Test A postemergence; details: Amaranthus retroflexus, post-emergence, 240 h, Postemergence
In short: as §1

[4] = tested on: ryegrass, Italian (Italian ryegrass, Lolium multiflorum); assay: Test A postemergence; details: Lolium multiflorum, post-emergence, 240 h, Postemergence
In short: as §1

[5] = tested on: wheat (Triticum aestivum); assay: Test A postemergence; details: Triticum aestivum, post-emergence, 240 h, Postemergence
In short: as §1

[6] = tested on: Kochia (Kochia scoparia); assay: Test A postemergence; details: Bassia scoparia, post-emergence, 240 h, Postemergence
In short: as §1

[7] = tested on: corn (Zea mays); assay: Test A postemergence; details: Zea mays, post-emergence, 240 h, Postemergence
In short: as §1

[8] = tested on: barnyardgrass (Echinochloa crus-galli); assay: Test A postemergence; details: Echinochloa crus-galli, post-emergence, 240 h, Postemergence
In short: as §1

[9] = tested on: giant foxtail (Setaria faberii); assay: Test A postemergence; details: Setaria faberi, post-emergence, 240 h, Postemergence
In short: as §1

[10] = tested on: ragweed (common ragweed, Ambrosia elatior); assay: Test A postemergence; details: Ambrosia artemisiifolia, post-emergence, 240 h, Postemergence
In short: as §1

[11] = tested on: pigweed (Amaranthus retroflexus); assay: Test A preemergence; details: Amaranthus retroflexus, pre-emergence, 240 h, preemergence, 0 to 100 scale where 0 is no effect and 100 is complete control, read-out: Pigweed plant response rating
[12] = tested on: ryegrass, Italian (Italian ryegrass, Lolium multiflorum); assay: Test A preemergence; details: Lolium multiflorum, pre-emergence, 240 h, preemergence, 0 to 100 scale where 0 is no effect and 100 is complete control, read-out: Ryegrass, Italian plant response rating
In short: as §1

[13] = tested on: Kochia (Kochia scoparia); assay: Test A preemergence; details: Bassia scoparia, pre-emergence, 240 h, preemergence, 0 to 100 scale where 0 is no effect and 100 is complete control, read-out: Kochia plant response rating
In short: as §1

[14] = tested on: barnyardgrass (Echinochloa crus-galli); assay: Test A preemergence; details: Echinochloa crus-galli, pre-emergence, 240 h, preemergence, 0 to 100 scale where 0 is no effect and 100 is complete control, read-out: Barnyardgrass plant response rating
In short: as §1

[15] = tested on: giant foxtail (Setaria faberii); assay: Test A preemergence; details: Setaria faberi, pre-emergence, 240 h, preemergence, 0 to 100 scale where 0 is no effect and 100 is complete control, read-out: Foxtail, Giant plant response rating
In short: as §1

[16] = tested on: ragweed (common ragweed, Ambrosia elatior); assay: Test A preemergence; details: Ambrosia artemisiifolia, pre-emergence, 240 h, 500 g ai/ha, preemergence; 0 to 100 scale where 0 is no effect and 100 is complete control; read-out: Ragweed plant response rating
In short: as §1

[17] = 125 g ai/ha, visual injury rating, approximately 10 d

Cc1cc(F)cc([C@H]2CNC(=O)[C@@H]2C(=O)Nc2ccccc2S(C)(=O)=O)c1 [Compound 1307]
pest or weed control at 125 g/ha ([1]; 125 g ai/ha, visual rating about 10 d after treatment, read-out: Blackgrass plant response rating (0 to 100 scale)): 0% | pest or weed control at 500 g/ha ([1]; 500 g ai/ha, visual injury, 0 to 100 scale (0 no effect, 100 complete control), approx. 10 d, read-out: Plant response rating, Blackgrass): 0% | pest or weed control at 125 g/ha ([2]; 125 g ai/ha, visual rating about 10 d after treatment, read-out: Galium plant response rating (0 to 100 scale)): 30% | pest or weed control at 500 g/ha ([2]; 500 g ai/ha, visual injury, 0 to 100 scale (0 no effect, 100 complete control), approx. 10 d, read-out: Plant response rating, Galium): 40% | pest or weed control at 125 g/ha ([3]; 125 g ai/ha, visual rating about 10 d after treatment, read-out: Pigweed plant response rating (0 to 100 scale)): 0% | pest or weed control at 500 g/ha ([3]; 500 g ai/ha, visual injury, 0 to 100 scale (0 no effect, 100 complete control), approx. 10 d, read-out: Plant response rating, Pigweed): 0% | pest or weed control at 125 g/ha ([4]; 125 g ai/ha, visual rating about 10 d after treatment, read-out: Ryegrass, Italian plant response rating (0 to 100 scale)): 0% | pest or weed control at 500 g/ha ([4]; 500 g ai/ha, visual injury, 0 to 100 scale (0 no effect, 100 complete control), approx. 10 d, read-out: Plant response rating, Ryegrass, Italian): 0% | plant injury at 125 g/ha ([5]; 125 g ai/ha, visual rating about 10 d after treatment, read-out: Wheat plant response rating (0 to 100 scale)): 0% | plant injury at 500 g/ha ([5]; 500 g ai/ha, visual injury, 0 to 100 scale (0 no effect, 100 complete control), approx. 10 d, read-out: Plant response rating, Wheat): 0% | pest or weed control at 125 g/ha ([6]; 125 g ai/ha, visual rating about 10 d after treatment, read-out: Kochia plant response rating (0 to 100 scale)): 0% | pest or weed control at 500 g/ha ([6]; 500 g ai/ha, visual injury, 0 to 100 scale (0 no effect, 100 complete control), approx. 10 d, read-out: Plant response rating, Kochia): 40% | plant injury at 125 g/ha ([7]; 125 g ai/ha, visual rating about 10 d after treatment, read-out: Corn plant response rating (0 to 100 scale)): 0% | Corn plant response rating (crop injury, 0 = no effect, 100 = complete kill) at 500 g/ha ([7]; 500 g ai/ha, visual injury, 0 to 100 scale (0 no effect, 100 complete control), approx. 10 d): 0% | pest or weed control at 125 g/ha ([8]; 125 g ai/ha, visual rating about 10 d after treatment, read-out: Barnyardgrass plant response rating (0 to 100 scale, 0 no effect, 100 complete control)): 40% | pest or weed control at 500 g/ha ([8]; 500 g ai/ha, visual injury, 0 to 100 scale (0 no effect, 100 complete control), approx. 10 d, read-out: Plant response rating, Barnyardgrass): 90% | pest or weed control at 125 g/ha ([9]; 125 g ai/ha, visual rating about 10 d after treatment, read-out: Foxtail, Giant plant response rating (0 to 100 scale)): 0% | pest or weed control at 500 g/ha ([9]; 500 g ai/ha, visual injury, 0 to 100 scale (0 no effect, 100 complete control), approx. 10 d, read-out: Plant response rating, Foxtail, Giant): 20% | pest or weed control at 125 g/ha ([10]; 125 g ai/ha, visual rating about 10 d after treatment, read-out: Ragweed plant response rating (0 to 100 scale)): 0% | pest or weed control at 500 g/ha ([10]; 500 g ai/ha, visual injury, 0 to 100 scale (0 no effect, 100 complete control), approx. 10 d, read-out: Plant response rating, Ragweed): 0% | pest or weed control at 125 g/ha [11, 17]: 0% | pest or weed control at 500 g/ha ([11]; 500 g ai/ha): 0% | pest or weed control at 125 g/ha [12, 17]: 0% | pest or weed control at 500 g/ha ([12]; 500 g ai/ha): 0% | pest or weed control at 125 g/ha [13, 17]: 20% | pest or weed control at 500 g/ha ([13]; 500 g ai/ha): 90% | pest or weed control at 125 g/ha [14, 17]: 80% | pest or weed control at 500 g/ha ([14]; 500 g ai/ha): 90% | pest or weed control at 125 g/ha [15, 17]: 50% | pest or weed control at 500 g/ha ([15]; 500 g ai/ha): 90% | pest or weed control at 500 g/ha [16]: 60%
